Assay results from publication PMC10777848 (Antimicrobial Agents and Chemotherapy, 2023).
Where “and” joins values, the source holds several entries; their conditions need not be identical. Identical values can stand only once. Like-named read-outs stand apart in the source and are kept apart here.

Tests used:
A. baumannii [1] = assay type: in vivo
Experimental: (§1) Magnitudes associated with 1-log10 and 2-log10 CFU reduction from baseline at 24 hours as well as the exposure required for an 80% reduction in bacterial burden (EC80) were determined from the fitted function.

A. baumannii [2] = experiment: Murine neutropenic lung infection model, PK/PD exposure-response; assay type: in vivo, CD-1 mice
Experimental: as §1

[3] = Population PK in infected neutropenic mice (two-compartment model)
Excerpt: As the plasma PK of neutropenic lung-infected animals matched that of thigh-infected animals, the thigh-infected PK was used for the development of the population PK model and subsequent exposure estimates for doses used in the PK/PD exposure-response analyses. Pharmacokinetic models were fit to time vs. drug concentration profiles generated in infected mice using Phoenix6.2 WinNonLin and NLME. […] Predicted exposures were utilized in the PK/PD analyses as all dosing solutions tested were within the variability of the bioanalytical method (20%).

A. baumannii [4] = experiment: Murine neutropenic thigh and lung models taken together; assay type: in vivo, CD-1 mice
Experimental: as §1

[5] = set-up: method as in data on file Entasis Therapeutics; conditions: mean of mouse plasma protein unbound fractions ex vivo, 0.4 µM to 50 µM; ref data on file Entasis Therapeutics; cited from earlier work
A. baumannii [6] = conditions: in vitro pharmacodynamic models; cited from earlier work
[7] = based on total ELF and plasma AUC exposures; cited from earlier work
A. baumannii [8] = test system: A. baumannii; set-up: method as in PMID 34349751; conditions: cited from earlier work
in vivo = conditions: CD-1, mouse
[9] = Distribution into mouse ELF (plasma and BAL sampling); conditions: 100:25 mg/kg sulbactam:durlobactam SC, neutropenic mice infected with ARC2058
A. baumannii isolates = experiment: Broth MIC testing (CLSI methodology); assay type: cell-based; conditions: Acinetobacter baumannii, modal MIC, combination = sulbactam with fixed 4 µg/mL durlobactam
Excerpt: All strains with an “ARC” designation are part of the Entasis collection of clinical isolates. All isolates have been previously characterized by whole genome sequencing.

[10] = test system: 4,038 recent, global, clinical isolates of A. baumannii; set-up: method as in PMID 36005804; conditions: 4,038 global clinical isolates, cited from earlier work
A. baumannii [11] = assay type: in vivo; conditions: thigh model; oral 200 mg/kg bid; A. baumannii ARC2058; 24 h
[12] = thigh (4:1 dose), 5 strains, SUL mean exposure 32.9 to 43.5%T>MIC, 24 h
[13] = sulbactam and durlobactam co-administered 4:1 SC, predicted value (% coefficient of variance)
[14] = mean of thigh 4:1, lung 4:1 and thigh fixed SUL dose
[15] = co-modeled thigh (n = 6 strains), sulbactam alone and combined with durlobactam
[16] = thigh, ARC2058, sulbactam only, 24 h
[17] = thigh, ARC3484, sulbactam:durlobactam 4:1 dosing, 24 h
[18] = thigh, ARC5081, sulbactam:durlobactam 4:1 dosing, 24 h
[19] = thigh, ARC5091, sulbactam:durlobactam 4:1 dosing, 24 h
[20] = thigh, mean of individual CRAB strains, 4:1 dosing
[21] = thigh model, A. baumannii ARC2058, SC q6h, 24 h
[22] = lung model, A. baumannii ARC2058, SC q6h, 24 h

With CC1=C[C@@H]2CN(C(=O)N2OS(=O)(=O)O)[C@@H]1C(N)=O [Durlobactam, durlobactam] the “Co-modeled durlobactam fAUC/MIC ratio for EC80” value (A. baumannii [1]; mouse, in vivo) was 38.2, the “Co-modeled durlobactam fAUC/MIC ratio for 1-log10 CFU reduction from baseline” value (A. baumannii [1]; [12]) was 8.0 and the “Co-modeled durlobactam fAUC/MIC ratio for 2-log10 CFU reduction from baseline” value (A. baumannii [1]; [12]) was 16.0. For the same compound, the “Co-modeled durlobactam fAUC/MIC ratio for EC80” value (A. baumannii [1]; [12]) was 15.1, the “Co-modeled durlobactam fAUC/MIC ratio for 1-log10 CFU reduction from baseline” value (A. baumannii [2]; mouse, in vivo) was 10.6 and the “Co-modeled durlobactam fAUC/MIC ratio for 2-log10 CFU reduction from baseline” value (A. baumannii [2]; mouse, in vivo) was 22.4. For the same compound, the “Co-modeled durlobactam fAUC/MIC ratio for EC80” value (A. baumannii [2]; mouse, in vivo) was 78.6, the “Cl1 (clearance of central compartment)” value [3, 13] was 3.0747 (7.3) L/kg/h and the “Ka (absorption rate)” value [3, 13] was 13.5 (32.6) 1/hr. The “V1 (central compartment volume of distribution)” value [3, 13] was 1.2508 (8.4) L/kg, the “durlobactam fAUC/MIC0-24 at which an additional log10 CFU reduction can be realized” value (A. baumannii [4]; both thigh and lung models, in combination with sulbactam) was ~ 30 and the “durlobactam fAUC/MIC0-24 at which 1-log10 CFU reduction over 24 hours can be realized” value (A. baumannii [4]; both thigh and lung models, in combination with sulbactam, co-modeled across strains) was 10 and ~ 10. For the same compound, the “Durlobactam fAUC/MIC ratio for 1-log10 CFU reduction from baseline, Mean ± SD” value (A. baumannii [4]; [14]) was 8.7 ± 1.7, the “Durlobactam fAUC/MIC ratio for 2-log10 CFU reduction from baseline, Mean ± SD” value (A. baumannii [4]; [14]) was 23.4 ± 7.9 and the “Durlobactam fAUC/MIC ratio for EC80, Mean ± SD” value (A. baumannii [4]; [14]) was 44.0 ± 32.1. For the same compound, the murine unbound fraction [5] was 100%, the “durlobactam AUC/MIC associated with net 1-log10 CFU reduction over 24 hours” value (A. baumannii [6]) was > 10 and 10 and the “ELF penetration observed clinically” value [7] was 37%. The “intrinsic antibacterial activity against A. baumannii on its own” value (A. baumannii [8]) was “no significant intrinsic antibacterial activity”, the Kp (in vivo; epithelial lining fluid (ELF) / plasma, subcutaneous) was 0.63 and the AUC (in vivo; in vivo, sc, 25 mg/kg) was 7000 ng·h/mL. The Kp (in vivo; in vivo, sc, 25 mg/kg) was 0.63, the concentration at 1 h (in vivo; in vivo, sc, 25 mg/kg) was 4070 ± 1790 ng/mL and the concentration at 3 h (in vivo; in vivo, sc, 25 mg/kg) was 330 ± 130 ng/mL. For the same compound, the concentration at 12 h (in vivo; in vivo, sc, 25 mg/kg) was 10 ± 1 ng/mL, the “AUC, ELF” value [9] was 4.4 µg·h/mL and the “Concentration, ELF” value ([9]; 1 h) was 2.48 ± 0.91 µg/mL. The “Concentration, ELF” value ([9]; 3 h) was 0.26 ± 0.15 µg/mL, the “Concentration, ELF” value ([9]; 6 h) was 0.002 ± 0.001 µg/mL and the “Concentration, Plasma” value ([9]; 6 h) was 0.03 ± 0.01 µg/mL. The “Concentration, ELF” value ([9]; 12 h) was “BLQ”.

Compound CC1(C)[C@H](C(=O)O)N2C(=O)C[C@H]2S1(=O)=O [Sulbactam, sulbactam] has an MIC (A. baumannii isolates; A. baumannii ARC2058) of 2 µg/mL, an MIC (A. baumannii isolates; A. baumannii ARC3484) of 16 µg/mL and an MIC (A. baumannii isolates; A. baumannii ARC3486) of 32 µg/mL. It also gave an MIC (A. baumannii isolates; A. baumannii ARC5077) of 16 µg/mL, an MIC (A. baumannii isolates; A. baumannii ARC5079) of 32 µg/mL and an MIC (A. baumannii isolates; A. baumannii ARC5081) of 16 µg/mL. It also gave an MIC (A. baumannii isolates; A. baumannii ARC5091) of 8 µg/mL, an MIC (A. baumannii isolates; A. baumannii ARC5950) of 64 µg/mL and an MIC (A. baumannii isolates; A. baumannii ARC5954) of 32 µg/mL. The MIC (A. baumannii isolates; A. baumannii ARC5955) was 64 µg/mL, the “Sulbactam %fT>MIC for 2-log10 CFU reduction from baseline” value (A. baumannii [1]; [15]) was 38.2% and the “Sulbactam %fT>MIC for EC80” value (A. baumannii [1]; [15]) was 44.1%. For the same compound, the “Sulbactam %fT>MIC for 1-log10 CFU reduction from baseline” value (A. baumannii [1]; [16]) was 20.5%, the “Sulbactam %fT>MIC for 2-log10 CFU reduction from baseline” value (A. baumannii [1]; [16]) was 31.5% and the “Sulbactam %fT>MIC for EC80” value (A. baumannii [1]; [16]) was 47.0%. The “Sulbactam %fT>MIC for 2-log10 CFU reduction from baseline” value (A. baumannii [1]; [17]) was 40.2%, the “Sulbactam %fT>MIC for EC80” value (A. baumannii [1]; [17]) was 42.8% and the “Sulbactam %fT>MIC for EC80” value (A. baumannii [1]; thigh, ARC3486, sulbactam:durlobactam 4:1 dosing, 24 h) was 55.3%. For the same compound, the “Sulbactam %fT>MIC for EC80” value (A. baumannii [1]; thigh, ARC5079, sulbactam:durlobactam 4:1 dosing, 24 h) was 53.2%, the “Sulbactam %fT>MIC for 1-log10 CFU reduction from baseline” value (A. baumannii [1]; [18]) was 26.3% and the “Sulbactam %fT>MIC for 2-log10 CFU reduction from baseline” value (A. baumannii [1]; [18]) was 28.8%. The “Sulbactam %fT>MIC for EC80” value (A. baumannii [1]; [18]) was 32.0%, the “Sulbactam %fT>MIC for 1-log10 CFU reduction from baseline” value (A. baumannii [1]; [19]) was 26.7% and the “Sulbactam %fT>MIC for 2-log10 CFU reduction from baseline” value (A. baumannii [1]; [19]) was 29.3%. The “Sulbactam %fT>MIC for EC80” value (A. baumannii [1]; [19]) was 30.4%, the “Sulbactam %fT>MIC for 2-log10 CFU reduction from baseline, Mean ± SD” value (A. baumannii [1]; [20]) was 38.6 ± 10.0% and the “Sulbactam %fT>MIC for EC80, Mean ± SD” value (A. baumannii [1]; [20]) was 42.7 ± 11.6%. The “V1 (central compartment volume of distribution)” value ([3]; sulbactam alone, SC, predicted value) was 1.8847 L/kg, the “Ka (absorption rate)” value ([3]; sulbactam alone, SC, predicted value (% coefficient of variance)) was 6 (12.5) 1/hr and the “Ka (absorption rate)” value [3, 13] was 12 (8.4) 1/hr. For the same compound, the “V1 (central compartment volume of distribution)” value [3, 13] was 1.0177 (7.0) L/kg, the “sulbactam fT>MIC at which 1-log10 CFU reduction over 24 hours can be realized” value (A. baumannii [4]; both thigh and lung models, in combination with durlobactam, co-modeled across strains) was “exceeds 50%” and the “sulbactam fT>MIC at which 2-log10 CFU reduction was achieved” value (A. baumannii [4]; present in vivo study, sulbactam-susceptible isolate ARC2058) was “exceeded 50%”. For the same compound, the murine unbound fraction [5] was 100%, the MIC90 of sulbactam ([10]; sulbactam alone) was 64 µg/mL and the MIC90 of sulbactam ([10]; with the addition of durlobactam) was 2 µg/mL. The “AUC, ELF” value [9] was 10.3 µg·h/mL, the “AUC, Plasma” value [9] was 32.3 µg·h/mL and the “Concentration, ELF” value ([9]; 1 h) was 5.70 ± 1.15 µg/mL. For the same compound, the “Concentration, Plasma” value ([9]; 1 h) was 18.55 ± 5.87 µg/mL, the “Concentration, ELF” value ([9]; 3 h) was 0.54 ± 0.12 µg/mL and the “Concentration, Plasma” value ([9]; 3 h) was 1.69 ± 0.56 µg/mL. The “Concentration, ELF” value ([9]; 6 h) was 0.29 ± 0.14 µg/mL, the “Concentration, Plasma” value ([9]; 6 h) was 0.10 ± 0.05 µg/mL and the “Concentration, ELF” value ([9]; 12 h) was 0.06 ± 0.01 µg/mL. For the same compound, the “Concentration, Plasma” value ([9]; 12 h) was 0.02 ± 0.01 µg/mL.

In the case of C[C@H]1COc2c(N3CCN(C)CC3)c(F)cc3c(=O)c(C(=O)O)cn1c23 [levofloxacin], the “log10 CFU/g reduction (positive control)” value (A. baumannii [2]; lung model, oral 200 mg/kg bid, A. baumannii ARC2058, 24 h) is reported as 1.8 log10 CFU/g and the “change in log10 CFU (positive control)” value (A. baumannii [11]) is reported as −2.4 log10 CFU.

For C[C@@H](O)[C@H]1C(=O)N2C(C(=O)O)=C(S[C@@H]3CN[C@H](C(=O)N(C)C)C3)[C@H](C)[C@H]12 [Meropenem, meropenem], the “Meropenem %fT>MIC for 1-log10 CFU/g reduction from baseline” value (A. baumannii [1]; [21]) was 27.2%, the “Meropenem %fT>MIC for 2-log10 CFU/g reduction from baseline” value (A. baumannii [1]; [21]) was 32.4% and the “Meropenem %fT>MIC for EC80” value (A. baumannii [1]; [21]) was 36.0%. The “Meropenem %fT>MIC for 1-log10 CFU/g reduction from baseline” value (A. baumannii [2]; [22]) was 29.4%, the “Meropenem %fT>MIC for 2-log10 CFU/g reduction from baseline” value (A. baumannii [2]; [22]) was 32.2% and the “Meropenem %fT>MIC for EC80” value (A. baumannii [2]; [22]) was 39.7%.
